Series [1] deals with Genome polyprotein (West Nile virus) (UniProt P06935). Briefly: Inhibition of West Nile virus NS2B-NS3 protease at 50 uM by biochemical enzymatic assay relative to control.
The target in series [2] is Genome polyprotein (dengue virus type 2) (UniProt P29990). Briefly: Inhibition of DENV-2 NS2B-NS3 protease at 50 uM by biochemical enzymatic assay relative to control.
In series [3] the target is T1, Trypsin (Homo sapiens, UniProt P07477+P07478+P35030). Kind of series: Inhibition of trypsin (unknown origin) at 50 uM by biochemical assay relative to control. The class given is protein assay.
For series [4], the target named is Prothrombin (Homo sapiens) (UniProt P00734). Briefly: Inhibition of Thrombin (unknown origin) at 25 uM by biochemical assay relative to control.
Series [5] is described as follows: Cytotoxicity against human HeLa cells by CellTiter-Blue assay. It counts as toxicity, cell-based. For orientation: Resazurin is reduced to fluorescent resorufin, in cell work by metabolically active cells.
The target of series [6] is Genome polyprotein (dengue virus type 2, UniProt P29990). Kind of series: Inhibition of DENV-2 NS2B-NS3 protease by biochemical enzymatic assay.
Series [7] has as its target T1, Trypsin. Kind of series: Stability of the compound assessed as trypsin (unknown origin) mediated compound degradation incubated for 60 mins by UV-based HPLC analysis. The class given is ADME, protein assay. The conditions noted are these: 1 h.
Series [8] in a line: Stability of the compound assessed as alpha-chymotrypsin (unknown origin) mediated compound degradation incubated for 60 mins by UV-based HPLC analysis. It counts as ADME. Particulars: human, 1 h.
Series [9] in a line: Metabolic stability in rat liver microsomes measured for 120 mins by UV-based HPLC analysis. The conditions noted are these: 2 h. It counts as ADME, Microsome. For orientation: Microsomes from liver hold many membrane-bound enzymes, among them those of drug oxidation.

Sequence of Genome polyprotein (West Nile virus) (P06935 whole entry): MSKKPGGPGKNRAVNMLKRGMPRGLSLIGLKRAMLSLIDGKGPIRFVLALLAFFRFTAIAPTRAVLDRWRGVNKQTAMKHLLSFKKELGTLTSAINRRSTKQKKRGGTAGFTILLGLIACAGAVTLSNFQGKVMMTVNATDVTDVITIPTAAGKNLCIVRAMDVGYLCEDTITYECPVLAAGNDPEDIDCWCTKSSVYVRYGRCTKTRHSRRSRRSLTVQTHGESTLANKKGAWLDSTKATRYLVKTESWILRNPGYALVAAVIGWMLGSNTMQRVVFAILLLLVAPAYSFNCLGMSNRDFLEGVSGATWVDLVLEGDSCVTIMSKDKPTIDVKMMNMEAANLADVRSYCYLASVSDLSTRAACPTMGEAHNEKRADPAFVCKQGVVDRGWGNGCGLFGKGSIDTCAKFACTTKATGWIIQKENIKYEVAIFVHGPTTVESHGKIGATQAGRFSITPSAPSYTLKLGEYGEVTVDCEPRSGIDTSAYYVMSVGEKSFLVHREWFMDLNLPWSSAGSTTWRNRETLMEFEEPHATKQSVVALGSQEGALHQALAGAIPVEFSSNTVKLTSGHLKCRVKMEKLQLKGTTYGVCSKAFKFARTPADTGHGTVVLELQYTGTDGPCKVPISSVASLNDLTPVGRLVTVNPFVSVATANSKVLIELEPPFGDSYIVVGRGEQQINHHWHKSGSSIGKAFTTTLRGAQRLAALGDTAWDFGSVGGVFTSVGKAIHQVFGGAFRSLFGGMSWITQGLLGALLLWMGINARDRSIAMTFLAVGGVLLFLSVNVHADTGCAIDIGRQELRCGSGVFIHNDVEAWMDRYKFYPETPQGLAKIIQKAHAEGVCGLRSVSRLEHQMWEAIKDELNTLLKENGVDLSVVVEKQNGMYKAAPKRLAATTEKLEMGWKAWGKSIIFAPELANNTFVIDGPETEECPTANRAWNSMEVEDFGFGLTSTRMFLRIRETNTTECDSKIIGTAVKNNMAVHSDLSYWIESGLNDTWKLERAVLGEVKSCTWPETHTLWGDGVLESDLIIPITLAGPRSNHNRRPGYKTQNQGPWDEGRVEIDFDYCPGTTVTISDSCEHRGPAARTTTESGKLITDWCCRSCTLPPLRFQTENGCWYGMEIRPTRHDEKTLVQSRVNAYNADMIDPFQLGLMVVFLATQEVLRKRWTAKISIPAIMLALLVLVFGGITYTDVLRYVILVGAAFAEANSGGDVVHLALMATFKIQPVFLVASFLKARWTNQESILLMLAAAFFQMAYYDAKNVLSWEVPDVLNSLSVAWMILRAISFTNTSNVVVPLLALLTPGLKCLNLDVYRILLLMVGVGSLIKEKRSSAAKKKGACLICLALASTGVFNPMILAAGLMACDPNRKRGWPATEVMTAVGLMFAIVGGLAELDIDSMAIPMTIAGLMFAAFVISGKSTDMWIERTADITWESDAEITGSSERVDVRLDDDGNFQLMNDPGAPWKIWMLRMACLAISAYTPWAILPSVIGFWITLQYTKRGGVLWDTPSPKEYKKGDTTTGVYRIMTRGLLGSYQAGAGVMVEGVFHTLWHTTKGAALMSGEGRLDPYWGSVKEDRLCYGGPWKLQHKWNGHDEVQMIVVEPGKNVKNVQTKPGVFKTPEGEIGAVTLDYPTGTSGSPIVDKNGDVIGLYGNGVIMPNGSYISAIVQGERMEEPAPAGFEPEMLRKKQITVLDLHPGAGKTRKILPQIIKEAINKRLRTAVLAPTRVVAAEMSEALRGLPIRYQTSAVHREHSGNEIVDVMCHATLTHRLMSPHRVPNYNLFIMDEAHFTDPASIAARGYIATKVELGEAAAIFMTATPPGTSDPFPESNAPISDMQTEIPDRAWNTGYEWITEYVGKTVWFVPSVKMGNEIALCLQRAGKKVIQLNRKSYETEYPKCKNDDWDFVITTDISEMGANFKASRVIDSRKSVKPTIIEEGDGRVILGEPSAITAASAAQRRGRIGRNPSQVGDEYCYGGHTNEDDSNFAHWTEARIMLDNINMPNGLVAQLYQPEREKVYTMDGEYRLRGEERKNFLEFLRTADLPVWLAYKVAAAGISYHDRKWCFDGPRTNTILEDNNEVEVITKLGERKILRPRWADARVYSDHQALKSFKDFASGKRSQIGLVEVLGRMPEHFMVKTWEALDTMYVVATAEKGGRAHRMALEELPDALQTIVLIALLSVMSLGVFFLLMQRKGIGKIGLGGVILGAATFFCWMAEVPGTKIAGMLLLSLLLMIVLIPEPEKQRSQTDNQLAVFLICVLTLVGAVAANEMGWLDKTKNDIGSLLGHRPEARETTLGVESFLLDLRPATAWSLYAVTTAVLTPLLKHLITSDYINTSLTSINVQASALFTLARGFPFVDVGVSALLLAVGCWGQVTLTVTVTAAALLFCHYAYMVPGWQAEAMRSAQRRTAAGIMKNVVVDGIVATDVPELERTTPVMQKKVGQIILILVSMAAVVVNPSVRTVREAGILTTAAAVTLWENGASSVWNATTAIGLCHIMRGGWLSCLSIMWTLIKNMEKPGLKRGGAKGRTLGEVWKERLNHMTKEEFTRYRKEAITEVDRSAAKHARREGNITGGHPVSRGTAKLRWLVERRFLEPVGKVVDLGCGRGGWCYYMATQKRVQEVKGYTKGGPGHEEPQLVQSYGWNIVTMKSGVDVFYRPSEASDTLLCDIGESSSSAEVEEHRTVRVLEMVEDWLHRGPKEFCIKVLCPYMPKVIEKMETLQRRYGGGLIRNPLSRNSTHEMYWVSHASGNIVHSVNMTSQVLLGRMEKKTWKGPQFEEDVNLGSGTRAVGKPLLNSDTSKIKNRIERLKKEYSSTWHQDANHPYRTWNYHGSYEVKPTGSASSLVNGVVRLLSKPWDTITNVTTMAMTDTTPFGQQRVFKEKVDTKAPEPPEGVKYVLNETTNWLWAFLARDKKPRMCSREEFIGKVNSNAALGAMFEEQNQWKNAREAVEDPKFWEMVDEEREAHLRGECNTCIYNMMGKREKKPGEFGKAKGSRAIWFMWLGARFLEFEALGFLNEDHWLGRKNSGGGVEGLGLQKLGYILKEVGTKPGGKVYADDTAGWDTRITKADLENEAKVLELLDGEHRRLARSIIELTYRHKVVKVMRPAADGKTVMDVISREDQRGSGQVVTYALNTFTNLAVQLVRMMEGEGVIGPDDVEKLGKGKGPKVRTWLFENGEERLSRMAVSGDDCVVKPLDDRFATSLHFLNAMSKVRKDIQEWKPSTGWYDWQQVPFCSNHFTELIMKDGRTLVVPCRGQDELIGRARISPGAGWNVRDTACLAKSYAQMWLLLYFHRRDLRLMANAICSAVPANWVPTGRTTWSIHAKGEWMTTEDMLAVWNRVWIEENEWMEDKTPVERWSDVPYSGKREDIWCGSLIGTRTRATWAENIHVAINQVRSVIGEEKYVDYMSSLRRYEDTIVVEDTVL

What is called inhibition is the relative decrease from the control value, in per cent. As a reminder, the CC50 is the concentration that lowers cell viability or growth by half. A high value points to lower toxicity to the cells. For orientation: IC50 means the concentration that gives 50% inhibition. Higher therefore signals a need for much substance. As for `CN([C@@H](CCCNC(=N)N)C(=O)N[C@@H](CCCCN)C(=O)N[C@H](C(N)=O)c1ccccc1)S(=O)(=O)c1ccccc1`, the inhibition in [1] was < 10%; in [2], 75.3%; in [3] it was < 10%; in series [4] it was < 10%. In addition, in series [5], the CC50 was > 50 µM. Inhibition in series [6] was half-maximal at 17.6 µM (IC50).

As to `CN([C@@H](CCCNC(=N)N)C(=O)N[C@@H](CCCCN)C(=O)N[C@@H](C(N)=O)c1ccccc1)S(=O)(=O)c1ccccc1`, the inhibition in series [1] is < 10%; in series [2], 80.6%; in series [3], < 10%; in series [4], < 10%. Moreover, the Stability result in [7], in [8] and in series [9] was “Stable” each time. In addition, in series [5], the CC50 is > 50 µM. For the same molecule, inhibition in series [6] was half-maximal at 11 µM (IC50).

For the molecule `Cc1ccc(S(=O)(=O)N(C)[C@@H](Cc2ccc(NC(=N)N)cc2)C(=O)N[C@@H](CCCCN)C(=O)N[C@@H](C(N)=O)c2ccccc2)cc1`, the inhibition in [1] was < 10%; in series [2], 95%; in series [3], 19.9%; in series [4], < 10%. In addition, in [5], the CC50 was > 50 µM. For the same molecule, 1.63 µM corresponded to half-maximal inhibition in [6] (IC50).

Regarding `N=C(N)NCCC[C@H](NS(=O)(=O)c1ccccc1)C(=O)N[C@@H](CCCCN)C(=O)N[C@@H](C(N)=O)c1ccccc1`, the inhibition in series [1] was 22.3%; in series [2] it was 44.3%; in series [3], < 10%; in series [4], < 10%. For the same molecule, the 50% cytotoxic concentration (CC50) in series [5] was > 50 µM. In series [9], the Stability result was “Stable”.

On to `N=C(N)Nc1ccc(C[C@H](NS(=O)(=O)c2ccccc2)C(=O)N[C@@H](CCCCN)C(=O)N[C@@H](C(N)=O)c2ccccc2)cc1`, for which the inhibition was < 10% in series [1], 52.6% in series [2], < 10% in series [3] and < 10% in series [4]. Also, the Stability result in series [7], in series [8] and in [9] was “Stable” each time. Further, the CC50 in series [5] is > 50 µM.

As to `CN([C@@H](Cc1ccc(C(=N)N)cc1)C(=O)N[C@@H](CCCCN)C(=O)N[C@H](C(N)=O)c1ccc(OCc2ccccc2)cc1)S(=O)(=O)c1ccccc1`, the inhibition is 20.2% in [1], 102% in series [2], 34.3% in series [3] and 23.4% in series [4]. Moreover, the concentration for half-maximal inhibition (IC50) in [6] came to 0.2 µM.

Turning to `CN([C@@H](CCCNC(=N)N)C(=O)N[C@@H](CCCCN)C(=O)N[C@@H](C(N)=O)c1ccccc1)S(=O)(=O)c1ccc(Cl)cc1`, the inhibition was < 10% in [1], 75.1% in [2], 13% in series [3] and < 10% in series [4]. The concentration for half-maximal inhibition (IC50) in [6] is 19.4 µM.

Take `CN([C@@H](Cc1cccc(NC(=N)N)c1)C(=O)N[C@@H](CCCCN)C(=O)N[C@@H](C(N)=O)c1ccccc1)S(=O)(=O)c1ccccc1`: the inhibition was 10.1% in [1], 78.6% in series [2], < 10% in series [3] and 30.2% in series [4]. In addition, in [6], inhibition was half-maximal at 13.2 µM (IC50).

As to `CC[C@H](NC(=O)[C@H](Cc1cccc(NC(=N)N)c1)N(C)S(=O)(=O)c1ccc(C)cc1)C(=O)N[C@@H](C(N)=O)c1ccccc1`, the inhibition in [1] was < 10%; in series [2], 74.3%; in [3] it was < 10%; in series [4] it was 18.1%. This molecule also came in with a half-inhibitory concentration (IC50) in series [6] of 18.9 µM.

Turning to `Cc1ccc(S(=O)(=O)N(C)[C@@H](CCCNC(=N)N)C(=O)N[C@@H](CCCCN)C(=O)N[C@@H](C(N)=O)c2ccccc2)cc1`, the inhibition in [1] is < 10%; in series [2], 75.8%; in [3], 20.3%; in series [4], < 10%. Moreover, in series [5], the 50% cytotoxic concentration (CC50) is > 50 µM. Besides, in [6], 17.9 µM corresponded to half-maximal inhibition (IC50).
